Test system: MIE p10c20
Experiment: Validation of MIE p10c20 from retrofitted metagenomic library (fluorescence)
Type: cell-based
Conditions: 1 mM
Text: A metagenomic DNA library was “retroffited” as described herein and shown in FIG. 15 to identify a metabolite induced element (MIE). In FIG. 16 fluoresence plots are shown for a retroffited metagenomic library assayed for fluorescence emitted by the fluorescent marker. […] Induction was by a pool of pCoumaric acid, Vanillic acid and Vanillin. The circled data point that represents a fosmid clone harboring a candidate MIE (p10c20) which was selected for further investigation.

O=C(O)/C=C/c1ccc(O)cc1 [pCoumaric acid]
responsiveness of MIE p10c20: most responsive
